Results on ten compounds are retold here after publication PMC9924091 (Journal of Medicinal Chemistry, 2023).

Read-outs that look alike come from different tables or passages of the source.

Series [1] has as its target T1, SARS-CoV-2 PL^pro (Severe acute respiratory syndrome coronavirus 2, UniProt P0DTD1).
T1 construct: PL^pro papain-like protease
In words: SPE-MS SARS-CoV-2 PL^pro inhibition assay. Type of series: biochemical.

Series [2] has as its system SARS-CoV-2 virus (Victoria strain) in VeroE6 cells. Nature of the series: microbe, parasite or virus in culture. Type of series: cell-based.
Series [3] has as its target T2, SARS-CoV-2 M^pro (Severe acute respiratory syndrome coronavirus 2, UniProt P0DTD1). Type of series: biochemical. Set-up: M^pro main protease; made in house.
For series [4], the target named is T2, SARS-CoV-2 M^pro. As to conditions: M^pro 2.0 μM, inhibitor 10 μM, 20 mM HEPES pH 7.5, 90 min, ambient temperature.

In the case of `C#C[C@H](CCSC)NC(=O)[C@@H]1[C@@H]2[C@H](CN1C(=O)[C@@H](NC(=O)C(F)(F)F)C(C)(C)C)C2(C)C` [Compound 14], in series [1], the “inhibition of SARS-CoV-2 PL^pro (in words)” value is listed as “None of the tested M^pro inhibitors inhibited SARS-CoV-2 PL^pro”.

A word on the EC50: it is the midpoint of the concentration-response curve. A low value points to an effect from little substance. As a reminder, the IC50 is the concentration needed to halve the response being measured. As for `CSCC[C@@H](C#N)NC(=O)[C@@H]1[C@@H]2[C@H](CN1C(=O)[C@@H](NC(=O)C(F)(F)F)C(C)(C)C)C2(C)C` [Compound 15], in series [2], the “fold less efficient inhibition of SARS-CoV-2 progression in infected VeroE6 cells than nirmatrelvir (1)” value was roughly 5 fold. The same compound displayed an EC50 in series [2] (Severe acute respiratory syndrome coronavirus 2, Vero C1008) of roughly 11.8 µM. Moreover, the “inhibition of SARS-CoV-2 PL^pro (in words)” value in series [1] is given as “None of the tested M^pro inhibitors inhibited SARS-CoV-2 PL^pro”. Moreover, the concentration for half-maximal inhibition (IC50) was greater than 100 µM in series [1] (isolated recombinant SARS-CoV-2 PL^pro, SPE-MS, n = 2, mean ± SD) and 890 ± 170 nM in series [3]. The “fold less efficient inhibition of isolated M^pro (higher IC50) than alkyne 13” value in series [3] is roughly 6 fold.

`C#C[C@H](C[C@@H]1CCNC1=O)NC(=O)[C@@H]1[C@@H]2[C@H](CN1C(=O)COc1ccc(OC(F)(F)F)cc1)C2(C)C` [Compound 18]: the “inhibition of SARS-CoV-2 progression in infected VeroE6 cells (in words)” value (“inhibition … in infected VeroE6 cells (in words)” below) in series [2] was “did not show any inhibitory activity over the tested concentration range”. Besides, the “inhibition of SARS-CoV-2 PL^pro (in words)” value in series [1] was “None of the tested M^pro inhibitors inhibited SARS-CoV-2 PL^pro”.

For the compound `C#C[C@H](C[C@@H]1CCNC1=O)NC(=O)[C@@H]1[C@@H]2[C@H](CN1C(=O)COc1ccc(C(F)(F)F)cc1)C2(C)C` [Compound 19], the “inhibition … in infected VeroE6 cells (in words)” value in series [2] is “did not show any inhibitory activity over the tested concentration range”. Further, the “inhibition of SARS-CoV-2 PL^pro (in words)” value in series [1] is given as “None of the tested M^pro inhibitors inhibited SARS-CoV-2 PL^pro”.

On to `CC1(C)[C@@H]2[C@@H](C(=O)N[C@H](C#N)C[C@@H]3CCNC3=O)N(C(=O)COc3ccc(OC(F)(F)F)cc3)C[C@@H]21` [Compound 20], for which, in series [1], the “inhibition of SARS-CoV-2 PL^pro (in words)” value was “None of the tested M^pro inhibitors inhibited SARS-CoV-2 PL^pro”.

On to `CC1(C)[C@@H]2[C@@H](C(=O)N[C@H](C#N)C[C@@H]3CCNC3=O)N(C(=O)COc3ccc(C(F)(F)F)cc3)C[C@@H]21` [Compound 21], for which the “inhibition of SARS-CoV-2 PL^pro (in words)” value in series [1] was “None of the tested M^pro inhibitors inhibited SARS-CoV-2 PL^pro”.

Take `C#C[C@H](C[C@@H]1CCNC1=O)NC(=O)[C@H](CC(C)C)NC(=O)OCc1ccccc1` [Compound 23]: the “inhibition … in infected VeroE6 cells (in words)” value in series [2] is “did not show any inhibitory activity over the tested concentration range”. The “inhibition of SARS-CoV-2 PL^pro (in words)” value in series [1] was “None of the tested M^pro inhibitors inhibited SARS-CoV-2 PL^pro”.

Regarding `CC(C)(C)[C@H](NC(=O)C(F)(F)F)C(=O)N1C[C@H]2[C@@H]([C@H]1C(=O)N[C@H](C#Cc1ccccc1)C[C@@H]1CCNC1=O)C2(C)C` [Compound 27a], the “inhibition of SARS-CoV-2 PL^pro (in words)” value in series [1] (SPE-MS PL^pro inhibition assay) is given as “None of the tested M^pro inhibitors inhibited SARS-CoV-2 PL^pro”. The “covalent reaction with M^pro by protein-observed SPE-MS (in words)” value in series [4] is reported as “reacts covalently”.

In the case of `CC(C)(C)[C@H](NC(=O)C(F)(F)F)C(=O)N1C[C@H]2[C@@H]([C@H]1C(=O)N[C@H](C#Cc1ccc([N+](=O)[O-])cc1)C[C@@H]1CCNC1=O)C2(C)C` [Compound 27b], the “inhibition of SARS-CoV-2 PL^pro (in words)” value in series [1] is “None of the tested M^pro inhibitors inhibited SARS-CoV-2 PL^pro”.

For the compound `CC(C)(C)[C@H](NC(=O)C(F)(F)F)C(=O)N1C[C@H]2[C@@H]([C@H]1C(=O)N[C@H](C#CC(F)(F)F)C[C@@H]1CCNC1=O)C2(C)C` [Compound 28], the “inhibition of SARS-CoV-2 PL^pro (in words)” value in series [1] is recorded as “None of the tested M^pro inhibitors inhibited SARS-CoV-2 PL^pro”.
